Earlier results, collected in patent US20190008906A1, “COMPOSITIONS FOR MANAGEMENT OF WOUNDS, SKIN DISEASES, DEHYDRATION, CHRONIC DISEASES, AND RESPIRATORY DISEASES” (priority 2017, published 2019).

Settings: laboratory animals, mainly when given orally

## CC1=CC(=O)C(C(C)C)=CC1=O [thymoquinone]
  safety in toxicity studies: quite safe
